Laboratory results taken from patent US12128028B2, “Heterocyclic sulfonamide derivatives and pharmaceutical uses thereof” (METRION BIOSCIENCES LIMITED, priority 2018, dated 2024).
pIC50: −log10 of the molar value.

biological target: human Kv1.3 (Homo sapiens (Human), UniProt P22001); assay: Kv1.3 potency evaluation, automated patch clamp electrophysiology (QPatch HT) in CHO-Kv1.3 cells; format: cell-based; conditions: whole-cell QPatch HT, % inhibition of charge, step to +30 mV, four concentrations, N≥3 cells, read-out: hKv1.3 IC50
Sequence (P22001 whole entry): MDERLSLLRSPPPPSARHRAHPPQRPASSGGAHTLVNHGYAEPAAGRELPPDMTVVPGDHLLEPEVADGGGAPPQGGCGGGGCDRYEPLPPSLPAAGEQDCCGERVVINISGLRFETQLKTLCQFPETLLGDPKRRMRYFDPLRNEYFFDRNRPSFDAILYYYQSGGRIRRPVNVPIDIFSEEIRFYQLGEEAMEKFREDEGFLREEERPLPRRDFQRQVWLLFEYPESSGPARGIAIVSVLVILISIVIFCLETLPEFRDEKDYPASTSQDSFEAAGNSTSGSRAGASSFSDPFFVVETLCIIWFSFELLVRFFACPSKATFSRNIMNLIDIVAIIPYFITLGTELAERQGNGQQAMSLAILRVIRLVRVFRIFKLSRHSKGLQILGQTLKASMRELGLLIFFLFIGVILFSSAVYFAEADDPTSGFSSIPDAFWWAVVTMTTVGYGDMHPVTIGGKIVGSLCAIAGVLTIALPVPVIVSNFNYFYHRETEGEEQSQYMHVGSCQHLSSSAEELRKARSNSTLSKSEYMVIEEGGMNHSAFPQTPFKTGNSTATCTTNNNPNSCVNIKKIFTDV
In short: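 Automated whole-cell patch clamp in CHO cells stably expressing human Kv1.3; steps from −80 to +30 mV (500 ms) at 0.067 Hz. Four cumulative concentrations after vehicle (0.1-0.3% DMSO); charge inhibition vs vehicle fitted by four-parameter logistic for IC50, N≥3 cells.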

Row | SMILES | pIC50
1 | CC1(C)N=C(C23CC(N(Cc4ccc(C(F)F)cc4)S(=O)(=O)c4ccccc4)(C2)C3)N[C@H]1C(=O)NCCC(F)(F)F (mixture of isomers) [Example 122] | 7.12
2 | CC1(C)N=C(C23CC(N(Cc4ccc(Cl)c(F)c4)S(=O)(=O)c4ccccc4)(C2)C3)N[C@H]1C(=O)N1CCC(F)(F)CC1 (mixture of isomers) [Example 123] | 7.12
3 | CC1(C)N=C(C23CC(N(Cc4ccc(Cl)c(F)c4)S(=O)(=O)c4ccccc4)(C2)C3)N[C@H]1C(=O)N1CCC(F)CC1 (mixture of isomers) [Example 124] | 7.12
4 | CC1(C)N=C(C23CC(N(Cc4ccc(Cl)c(F)c4)S(=O)(=O)c4ccccc4)(C2)C3)N[C@H]1C(=O)N1CC[C@@H](C(F)(F)F)C1 (mixture of isomers) [Example 125] | 7.12
5 | CC1(C)N=C(C23CC(N(Cc4ccc(Cl)c(F)c4)S(=O)(=O)c4ccccc4)(C2)C3)N[C@H]1C(=O)NCC(F)(F)C(F)(F)F (mixture of isomers) [Example 126] | 7.12
6 | CC1(F)CCN(C(=O)[C@@H]2NC(C34CC(N(Cc5ccc(Cl)c(F)c5)S(=O)(=O)c5ccccc5)(C3)C4)=NC2(C)C)C1 (mixture of isomers) [Example 127] | 7.11
7 | CC1(C)N=C(C23CC(N(Cc4ccc(Cl)c(Cl)c4)S(=O)(=O)CCCF)(C2)C3)N[C@H]1C(=O)NCCC(F)(F)F (mixture of isomers) [Example 128] | 7.11
8 | CC1(C)N=C(C23CC(N(Cc4ccc(Cl)c(F)c4)S(=O)(=O)c4ccccc4)(C2)C3)N[C@H]1C(=O)N1CCC2(C1)CC2(F)F (mixture of isomers) [Example 129] | 7.11
9 | CCCS(=O)(=O)N(Cc1ccc(Cl)c(Cl)c1)C12CC(C3=NC(C)(C)[C@H](C(=O)N4CCC(C(F)(F)F)CC4)N3)(C1)C2 (mixture of isomers) [Example 130] | 7.11
10 | CC1(C)N=C(C23CC(N(Cc4ccc(Cl)c(F)c4)S(=O)(=O)c4ccccc4)(C2)C3)N[C@H]1C(=O)N1CCCC(F)(F)CC1 (mixture of isomers) [Example 131] | 7.11
11 | CC1(C)N=C(C23CC(N(Cc4ccc(Cl)c(Cl)c4)S(=O)(=O)CCCF)(C2)C3)N[C@H]1C(=O)NCC1CC(F)(F)C1 (mixture of isomers) [Example 132] | 7.11
12 | CN(CC1CC(F)(F)C1)C(=O)[C@@H]1NC(C23CC(N(Cc4ccc(Cl)c(F)c4)S(=O)(=O)c4ccccc4)(C2)C3)=NC1(C)C (mixture of isomers) [Example 133] | 7.11
13 | CC1(C)N=C(C23CC(N(Cc4ccc(Cl)c(Cl)c4)S(=O)(=O)c4ccccc4)(C2)C3)N[C@H]1C(=O)N1CCC12CC(F)(F)C2 (mixture of isomers) [Example 134] | 7.10
14 | CC1(C)N=C(C23CC(N(Cc4ccc(Cl)c(F)c4)S(=O)(=O)c4ccccc4)(C2)C3)N[C@@H]1C(=O)NCC1CC(F)(F)C1 (mixture of isomers) [Example 135] | 7.09
15 | CCCS(=O)(=O)N(Cc1ccc(Cl)c(Cl)c1)C12CC(C3=NC(C)(C)[C@H](C(=O)NCCC(F)(F)F)N3)(C1)C2 (mixture of isomers) [Example 136] | 7.09
16 | CC1(C)N=C(C23CC(N(Cc4ccc(Cl)cc4)S(=O)(=O)CCC(F)F)(C2)C3)N[C@H]1C(=O)NCCC(F)(F)F (mixture of isomers) [Example 137] | 7.09
17 | CC1(C)N=C(C23CC(N(Cc4ccc(C(F)(F)F)cc4)S(=O)(=O)c4ccccc4)(C2)C3)N[C@H]1C(=O)NCCC(F)(F)F (mixture of isomers) [Example 138] | 7.08
18 | CC(C)(C)CS(=O)(=O)N(Cc1ccc(Cl)cc1)C12CC(C3=NC(C)(C)[C@H](C(=O)NCCC(F)(F)F)N3)(C1)C2 (mixture of isomers) [Example 139] | 7.08
19 | CC1(C)N=C(C23CC(N(Cc4ccc(Cl)c(F)c4)S(=O)(=O)c4ccccc4)(C2)C3)N[C@@H]1C(=O)NCCC(F)(F)F (mixture of isomers) [Example 146] | 7.06

Further lines, results first:

Row | pIC50 | SMILES
20 | 7.08 | CC1(C)N=C(C23CC(N(Cc4ccc(Cl)c(F)c4)S(=O)(=O)c4ccccc4)(C2)C3)N[C@H]1C(=O)NCC(F)(F)F (mixture of isomers) [Example 140]
21 | 7.08 | CC(C)(CC(F)(F)F)NC(=O)[C@@H]1NC(C23CC(N(Cc4ccc(Cl)c(F)c4)S(=O)(=O)c4ccccc4)(C2)C3)=NC1(C)C (mixture of isomers) [Example 141]
22 | 7.08 | CC1(C)N=C(C23CC(N(Cc4ccc(Cl)c(Cl)c4)S(=O)(=O)CCCF)(C2)C3)N[C@H]1C(=O)NCC(F)(F)C(F)(F)F (mixture of isomers) [Example 142]
23 | 7.07 | CCCS(=O)(=O)N(Cc1ccc(Cl)c(Cl)c1)C12CC(C3=NC(C)(C)[C@H](C(=O)NCC4(C(F)(F)F)CC4)N3)(C1)C2 (mixture of isomers) [Example 143]
24 | 7.06 | CC1(C)N=C(C23CC(N(Cc4ccc(Cl)c(F)c4)S(=O)(=O)c4ccccc4)(C2)C3)N[C@H]1C(=O)N1CCC2(C1)CC(F)(F)C2 (mixture of isomers) [Example 144]
25 | 7.06 | CN(CCC(F)(F)F)C(=O)[C@@H]1NC(C23CC(N(Cc4ccc(Cl)c(Cl)c4)S(=O)(=O)c4ccccc4)(C2)C3)=NC1(C)C (mixture of isomers) [Example 147]
26 | 7.05 | CC1(C)N=C(C23CC(N(Cc4ccc(Cl)c(F)c4)S(=O)(=O)c4ccccc4)(C2)C3)N[C@H]1C(=O)NCCC1(C(F)(F)F)CC1 (mixture of isomers) [Example 149]
27 | 7.05 | CC(F)(F)CCS(=O)(=O)N(Cc1ccc(Cl)c(Cl)c1)C12CC(C3=NC(C)(C)[C@H](C(=O)NCCC(F)(F)F)N3)(C1)C2 (mixture of isomers) [Example 150]
28 | 7.05 | CN(C(=O)[C@@H]1NC(C23CC(N(Cc4ccc(Cl)c(F)c4)S(=O)(=O)c4ccccc4)(C2)C3)=NC1(C)C)C1CC(F)(F)C1 (mixture of isomers) [Example 151]
29 | 7.04 | CC1(C)N=C(C23CC(N(Cc4ccc(Cl)cc4)S(=O)(=O)c4cccc(C(F)(F)F)c4)(C2)C3)N[C@H]1C(=O)NCCC(F)(F)F (mixture of isomers) [Example 152]
30 | 7.04 | CN(C(=O)[C@@H]1NC(C23CC(N(Cc4ccc(Cl)c(Cl)c4)S(=O)(=O)c4ccccc4)(C2)C3)=NC1(C)C)C1CC(C(F)F)C1 (mixture of isomers) [Example 153]
31 | 7.04 | CC1(C)N=C(C23CC(N(Cc4ccc(Cl)cc4)S(=O)(=O)c4ccccc4)(C2)C3)N[C@H]1C(=O)NCc1c(F)cc(F)cc1F (mixture of isomers) [Example 154]
32 | 7.04 | CC1(C)N=C(C23CC(N(Cc4cc(F)c(Cl)c(F)c4)S(=O)(=O)c4ccccc4)(C2)C3)N[C@H]1C(=O)NCCC(F)(F)F (mixture of isomers) [Example 155]
33 | 7.04 | CC(F)(F)CCS(=O)(=O)N(Cc1ccc(Cl)c(Cl)c1)C12CC(C3=NC(C)(C)[C@H](C(=O)NCC(F)(F)C(F)(F)F)N3)(C1)C2 (mixture of isomers) [Example 156]
34 | 7.02 | CC(F)(F)CCS(=O)(=O)N(Cc1ccc(Cl)c(Cl)c1)C12CC(C3=NC(C)(C)[C@H](C(=O)NCC4CC(F)(F)C4)N3)(C1)C2 (mixture of isomers) [Example 158]
35 | 7.02 | CC(C)(F)CNC(=O)[C@@H]1NC(C23CC(N(Cc4ccc(Cl)c(Cl)c4)S(=O)(=O)CCC(C)(F)F)(C2)C3)=NC1(C)C (mixture of isomers) [Example 159]
